Results taken from ChEMBL document CHEMBL5608141, “Identification of compartment-specific drug sensitivities in CRC organoid-stroma co-cultures” (2024).

What was measured:
Format in all cases: functional, Homo sapiens
Set-up in all cases: dose or concentration left out as unconfirmed
Colon cancer organoid [1] = test: Identification of compartment-specific drug sensitivities in O06 CRC organoid-stroma F06 CAF co-cultures. Organoid is transduced with Lucferase2-P2A-EGFP lentivirus, fibroblast with Renilla-dsRed lentivirus. Dual-Glo Luciferase assay is used to report viability data.
Colon cancer organoid [2] = test: Identification of compartment-specific drug sensitivities in O14 CRC organoid-stroma F14 CAF co-cultures. Organoid is transduced with Lucferase2-P2A-EGFP lentivirus, fibroblast with Renilla-dsRed lentivirus. Dual-Glo Luciferase assay is used to report viability data.
Colon cancer organoid [3] = test: Identification of compartment-specific drug sensitivities in O20 CRC organoid-stroma F20 CAF co-cultures. Organoid is transduced with Lucferase2-P2A-EGFP lentivirus, fibroblast with Renilla-dsRed lentivirus. Dual-Glo Luciferase assay is used to report viability data.
[4] = Transduced with Lucferase2-P2A-EGFP lentivirus
[5] = Transduced with Renilla-dsRed lentivirus

Cl.Cl.Cl.c1ccc(N2CCN(Cc3nc4ccccc4[nH]3)CC2)nc1
Cell Viability (Colon cancer organoid [1]; [4]): 46.7197% | Cell Viability (Colon cancer organoid [1]; [5]): 192.419% | Cell Viability (Colon cancer organoid [2]; [4]): 99.1029% | Cell Viability (Colon cancer organoid [2]; [5]): 116.587% | Cell Viability (Colon cancer organoid [3]; [4]): 41.4322% | Cell Viability (Colon cancer organoid [3]; [5]): 124.541%

COc1ccc(Cn2ccc3ccc(C(=O)NO)cc32)cc1
Cell Viability (Colon cancer organoid [1]; [4]): 111.578% | Cell Viability (Colon cancer organoid [1]; [5]): 129.424% | Cell Viability (Colon cancer organoid [2]; [4]): 104.237% | Cell Viability (Colon cancer organoid [2]; [5]): 105.297% | Cell Viability (Colon cancer organoid [3]; [4]): 177.336% | Cell Viability (Colon cancer organoid [3]; [5]): 111.53%

Cc1cc(C)cc(C(=O)NOCCCCCC(=O)NO)c1
Cell Viability (Colon cancer organoid [1]; [4]): 13.8956% | Cell Viability (Colon cancer organoid [1]; [5]): 454.718% | Cell Viability (Colon cancer organoid [2]; [4]): 50.2494% | Cell Viability (Colon cancer organoid [2]; [5]): 170.815% | Cell Viability (Colon cancer organoid [3]; [4]): 15.4081% | Cell Viability (Colon cancer organoid [3]; [5]): 402.959%

CCn1cc(-c2cccc(C(F)(F)F)c2)c2sc(C(=N)NC3CCS(=O)(=O)CC3)cc2c1=O
Cell Viability (Colon cancer organoid [1]; [4]): 95.4713% | Cell Viability (Colon cancer organoid [1]; [5]): 165.165% | Cell Viability (Colon cancer organoid [2]; [4]): 135.151% | Cell Viability (Colon cancer organoid [2]; [5]): 119.275% | Cell Viability (Colon cancer organoid [3]; [4]): 61.0963% | Cell Viability (Colon cancer organoid [3]; [5]): 124.144%

CCCOc1ccn2c(C(C)=O)cc(-c3cccc(OC)c3)c2c1
Cell Viability (Colon cancer organoid [1]; [4]): 110.241% | Cell Viability (Colon cancer organoid [1]; [5]): 146.669% | Cell Viability (Colon cancer organoid [2]; [4]): 85.0656% | Cell Viability (Colon cancer organoid [2]; [5]): 86.803% | Cell Viability (Colon cancer organoid [3]; [4]): 77.121% | Cell Viability (Colon cancer organoid [3]; [5]): 110.044%

C[C@@H]1CC(=O)Nc2cccc(-c3ccc4c(c3)c(-c3cnn(C)c3)nn4C)c2N1
Cell Viability (Colon cancer organoid [1]; [4]): 96.7982% | Cell Viability (Colon cancer organoid [1]; [5]): 166.358% | Cell Viability (Colon cancer organoid [2]; [4]): 127.46% | Cell Viability (Colon cancer organoid [2]; [5]): 126.975% | Cell Viability (Colon cancer organoid [3]; [4]): 69.4002% | Cell Viability (Colon cancer organoid [3]; [5]): 148.573%

CC(=O)c1cc(-c2cc(C(=O)NC3CC3)ccc2C)c2ncccn12
Cell Viability (Colon cancer organoid [1]; [4]): 95.4153% | Cell Viability (Colon cancer organoid [1]; [5]): 118.795% | Cell Viability (Colon cancer organoid [2]; [4]): 131.291% | Cell Viability (Colon cancer organoid [2]; [5]): 101.161% | Cell Viability (Colon cancer organoid [3]; [4]): 68.6867% | Cell Viability (Colon cancer organoid [3]; [5]): 121.421%

CN1C[C@H](Nc2cnn(C)c(=O)c2Br)C[C@H](c2ccccc2)C1
Cell Viability (Colon cancer organoid [1]; [4]): 52.3497% | Cell Viability (Colon cancer organoid [1]; [5]): 181.327% | Cell Viability (Colon cancer organoid [2]; [4]): 132.078% | Cell Viability (Colon cancer organoid [2]; [5]): 105.854% | Cell Viability (Colon cancer organoid [3]; [4]): 160.124% | Cell Viability (Colon cancer organoid [3]; [5]): 106.068%

CO[C@H]1CNC[C@@H](OCC2CCC(F)(F)CC2)[C@@H]1Nc1ncc(-c2cncc(C)c2)c2cc(C)c(=O)[nH]c12
Cell Viability (Colon cancer organoid [1]; [4]): 95.0954% | Cell Viability (Colon cancer organoid [1]; [5]): 138.476% | Cell Viability (Colon cancer organoid [2]; [4]): 145.9% | Cell Viability (Colon cancer organoid [2]; [5]): 102.552% | Cell Viability (Colon cancer organoid [3]; [4]): 171.771% | Cell Viability (Colon cancer organoid [3]; [5]): 122.949%

Cc1sc2c(c1C)C(c1ccc(Cl)cc1)=N[C@@H](CC(=O)NCCCCCCCCNC(=O)COc1cccc3c1C(=O)N(C1CCC(=O)NC1=O)C3=O)c1nnc(C)n1-2 (stereo partly specified)
Cell Viability (Colon cancer organoid [1]; [4]): 5.4511% | Cell Viability (Colon cancer organoid [1]; [5]): 19.3995% | Cell Viability (Colon cancer organoid [2]; [4]): 5.905% | Cell Viability (Colon cancer organoid [2]; [5]): 10.8389% | Cell Viability (Colon cancer organoid [3]; [4]): 2.01% | Cell Viability (Colon cancer organoid [3]; [5]): 74.9854%

CN(C)CCCOc1ccc(-c2cc(NCCCn3cccn3)nc(S(C)(=O)=O)n2)cc1
Cell Viability (Colon cancer organoid [1]; [4]): 126.468% | Cell Viability (Colon cancer organoid [1]; [5]): 129.443% | Cell Viability (Colon cancer organoid [2]; [4]): 139.487% | Cell Viability (Colon cancer organoid [2]; [5]): 89.5427% | Cell Viability (Colon cancer organoid [3]; [4]): 144.942% | Cell Viability (Colon cancer organoid [3]; [5]): 126.832%

CNCCN1CCC(c2cc(CN(C)C(=O)c3cccc(Oc4ccccc4)c3)ccn2)CC1
Cell Viability (Colon cancer organoid [1]; [4]): 83.6812% | Cell Viability (Colon cancer organoid [1]; [5]): 129.007% | Cell Viability (Colon cancer organoid [2]; [4]): 146.315% | Cell Viability (Colon cancer organoid [2]; [5]): 111.036% | Cell Viability (Colon cancer organoid [3]; [4]): 67.5507% | Cell Viability (Colon cancer organoid [3]; [5]): 133.473%

Cl.O=C(O)c1cc(-c2ccc(C3CCNCC3)cc2)c2ccc(-c3ccc(C(F)(F)F)cc3)cc2c1
Cell Viability (Colon cancer organoid [1]; [4]): 107.895% | Cell Viability (Colon cancer organoid [1]; [5]): 117.47% | Cell Viability (Colon cancer organoid [2]; [4]): 158.935% | Cell Viability (Colon cancer organoid [2]; [5]): 99.9399% | Cell Viability (Colon cancer organoid [3]; [4]): 106.654% | Cell Viability (Colon cancer organoid [3]; [5]): 101.384%

C[C@@H](c1cccc(CN)c1)n1cc(Cl)cc(C(N)=O)c1=N.Cl
Cell Viability (Colon cancer organoid [1]; [4]): 104.535% | Cell Viability (Colon cancer organoid [1]; [5]): 114.984% | Cell Viability (Colon cancer organoid [2]; [4]): 112.906% | Cell Viability (Colon cancer organoid [2]; [5]): 94.626% | Cell Viability (Colon cancer organoid [3]; [4]): 85.1763% | Cell Viability (Colon cancer organoid [3]; [5]): 93.567%

Cc1c(Nc2ccc(S(=O)(=O)N3CCN(C)CC3)cc2F)nc2ccc(Nc3cnn(C4CC4)c3)cn2c1=O
Cell Viability (Colon cancer organoid [1]; [4]): 81.8172% | Cell Viability (Colon cancer organoid [1]; [5]): 120.859% | Cell Viability (Colon cancer organoid [2]; [4]): 108.37% | Cell Viability (Colon cancer organoid [2]; [5]): 91.7144% | Cell Viability (Colon cancer organoid [3]; [4]): 118.006% | Cell Viability (Colon cancer organoid [3]; [5]): 135.679%

O=C(NCc1ccccc1)c1ccc(S(=O)(=O)NCc2ccccc2)cc1
Cell Viability (Colon cancer organoid [1]; [4]): 32.2843% | Cell Viability (Colon cancer organoid [1]; [5]): 131.443% | Cell Viability (Colon cancer organoid [2]; [4]): 108.82% | Cell Viability (Colon cancer organoid [2]; [5]): 110.313% | Cell Viability (Colon cancer organoid [3]; [4]): 89.1581% | Cell Viability (Colon cancer organoid [3]; [5]): 96.8328%
